Measured values from US20250325687A1, “CONJUGATE COMPRISING TOLL-LIKE RECEPTOR AGONIST” (MABSOFT THERAPEUTICS (SHANGHAI) CO., LTD., priority 2022, published 2025).
Read-outs that look alike come from different tables or passages of the source.

What was measured:
Format in all cases: cell-based
[1] = target: T1, hTLR7 (human Toll-like receptor 7) (Homo sapiens, UniProt Q9NYK1); experiment: hTLR7 cell assay (HEK-Blue hTLR7 reporter cells); conditions: 24 hours, OD 650 nm
T1 construct: host or cells: HEK-Blue hTLR7 (HEK293-derived reporter cells)
T1 sequence (Q9NYK1 27-1049): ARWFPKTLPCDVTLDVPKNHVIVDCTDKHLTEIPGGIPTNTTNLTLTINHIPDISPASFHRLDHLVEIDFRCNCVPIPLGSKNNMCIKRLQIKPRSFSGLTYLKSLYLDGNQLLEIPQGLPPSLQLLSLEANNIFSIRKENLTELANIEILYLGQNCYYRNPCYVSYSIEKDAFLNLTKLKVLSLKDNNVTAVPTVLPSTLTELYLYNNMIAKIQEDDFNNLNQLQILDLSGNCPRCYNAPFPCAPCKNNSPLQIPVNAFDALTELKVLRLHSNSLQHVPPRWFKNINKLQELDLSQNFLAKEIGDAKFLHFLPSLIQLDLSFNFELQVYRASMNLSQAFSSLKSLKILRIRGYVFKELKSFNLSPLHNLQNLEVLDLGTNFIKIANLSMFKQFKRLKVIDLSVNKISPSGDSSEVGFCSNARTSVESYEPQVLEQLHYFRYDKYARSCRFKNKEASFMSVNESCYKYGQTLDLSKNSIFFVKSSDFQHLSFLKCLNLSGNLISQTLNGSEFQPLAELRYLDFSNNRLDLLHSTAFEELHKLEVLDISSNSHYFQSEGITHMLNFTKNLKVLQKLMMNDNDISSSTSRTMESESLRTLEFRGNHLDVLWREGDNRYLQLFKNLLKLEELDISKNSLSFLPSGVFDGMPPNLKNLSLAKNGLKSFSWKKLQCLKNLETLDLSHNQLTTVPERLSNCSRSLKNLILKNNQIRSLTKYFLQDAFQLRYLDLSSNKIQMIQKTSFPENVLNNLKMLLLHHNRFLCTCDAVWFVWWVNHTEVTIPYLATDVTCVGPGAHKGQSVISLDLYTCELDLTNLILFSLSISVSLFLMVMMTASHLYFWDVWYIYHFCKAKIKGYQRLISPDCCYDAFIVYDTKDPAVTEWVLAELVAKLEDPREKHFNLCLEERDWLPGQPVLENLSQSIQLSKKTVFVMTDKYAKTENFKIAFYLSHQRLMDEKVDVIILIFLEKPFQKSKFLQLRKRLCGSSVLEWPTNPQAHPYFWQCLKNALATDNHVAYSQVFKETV
Procedure, shortened: (§1)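 HEK-Blue reporter cells in HEK-Blue Detection medium (50000 cells/mL) were exposed to test compounds for 24 hours at 37° C, 5% CO2. Agonism was read from supernatant incubated 1 hour at 37° C with QUANTI-Blue, measured as optical density at 650 nm.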

[2] = target: T2, hTLR8 (human Toll-like receptor 8) (Homo sapiens, UniProt Q9NR97); experiment: hTLR8 cell assay (HEK-Blue hTLR8 reporter cells); conditions: 24 hours, OD 650 nm
T2 construct: host or cells: HEK-Blue hTLR8 (HEK293-derived reporter cells)
T2 sequence (Q9NR97 27-1041): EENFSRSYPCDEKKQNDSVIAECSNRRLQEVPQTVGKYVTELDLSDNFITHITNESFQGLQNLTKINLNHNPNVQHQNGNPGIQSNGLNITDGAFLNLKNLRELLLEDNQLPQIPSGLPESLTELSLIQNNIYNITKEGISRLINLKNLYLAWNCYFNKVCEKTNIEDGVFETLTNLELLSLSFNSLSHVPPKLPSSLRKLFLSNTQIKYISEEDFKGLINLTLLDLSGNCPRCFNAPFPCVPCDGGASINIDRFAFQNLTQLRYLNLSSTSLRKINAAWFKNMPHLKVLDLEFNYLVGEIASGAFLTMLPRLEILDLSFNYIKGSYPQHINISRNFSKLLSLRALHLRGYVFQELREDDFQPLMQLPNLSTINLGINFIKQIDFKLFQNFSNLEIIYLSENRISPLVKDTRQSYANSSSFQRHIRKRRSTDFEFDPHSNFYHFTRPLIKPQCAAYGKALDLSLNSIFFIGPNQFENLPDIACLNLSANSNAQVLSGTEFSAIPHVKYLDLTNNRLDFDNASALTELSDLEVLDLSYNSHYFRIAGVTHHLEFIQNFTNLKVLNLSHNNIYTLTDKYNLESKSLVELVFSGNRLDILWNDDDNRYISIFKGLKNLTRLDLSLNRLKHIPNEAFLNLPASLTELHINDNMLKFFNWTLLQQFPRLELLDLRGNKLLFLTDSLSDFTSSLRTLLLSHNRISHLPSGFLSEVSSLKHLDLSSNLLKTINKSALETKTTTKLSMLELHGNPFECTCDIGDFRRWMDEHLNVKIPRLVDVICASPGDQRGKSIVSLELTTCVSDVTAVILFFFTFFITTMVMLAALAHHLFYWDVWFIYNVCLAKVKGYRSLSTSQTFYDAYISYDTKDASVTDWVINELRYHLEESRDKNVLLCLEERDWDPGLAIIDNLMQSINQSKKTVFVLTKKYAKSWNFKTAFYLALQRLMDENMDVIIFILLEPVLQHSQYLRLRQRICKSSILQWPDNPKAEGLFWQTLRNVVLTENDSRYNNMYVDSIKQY
Procedure, shortened: as §1

[3] = test system: human PBMC (human peripheral blood mononuclear cells); experiment: PBMC screening assay: induction of TNF-α production; conditions: read-out: EC50 (μM) TNF-α (hPBMC)
Description: The payload compounds of Formula (II′) were assayed to evaluate the induction of TNF-α production in human PBMC (human peripheral blood mononuclear cells).
Human peripheral blood mononuclear cells (PBMC) were obtained from Allcells. […] PBMC were incubated for 24 hours at 37° C. in a 5% CO2 humidified incubator. The following day PBMC plates were centrifuged at 500×g for 5 minutes and the growth media was removed. 200 μL of compound prepared in growth media at a series of diluted concentrations ranging from 2.54 nM to 50 μM were added to PBMC in duplicate and incubated for 24 hours at 37° C. in a 5% CO2 incubator. Prior to supernatant harvest, cells were spun at 500×g for 5 minutes to remove cell debris. TNF-α activity was assessed in the supernatant by ELISA (Elabscience) per the manufacturer's instructions. Optical density at 450 nm (ELISA) was analyzed using a plate reader.

[4] = human PBMC, 24 hours, TNF-α by ELISA, class symbols

Row | Compound | EC50 [1] | EC50 [2] | EC50 [3, 4] | EC50 ([3]; Homo sapiens, PBMC, 24 h)
1 | CCCC(F)(F)c1nc2c(N)nc3cc(Cc4cccc(CN)c4)ccc3c2n1CC(C)(C)O [Compound 52, 1-(4-amino-7-(3-(aminomethyl)benzyl)-2-(1,1-difluorobutyl)-1H-imidazo[4,5-c]quinolin-1-yl)-2-methylpropan-2-ol] | 1 to 10 µM | < 5 µM | > 0.64 µM | –
2 | CCCCc1nc2c(N)nc3cc(Cc4ccc5c(c4)C(N)CCC5)ccc3c2n1CC(C)(C)O (stereo not drawn) [Compound 57, 1-(4-amino-7-((8-amino-5,6,7,8-tetrahydronaphthalen-2-yl)methyl)-2-butyl-1H-imidazo[4,5-c]quinolin-1-yl)-2-methylpropan-2-ol] | < 1 µM | < 5 µM | – | < 0.64 µM
3 | CCCCc1nc2c(N)nc3cc(Cc4ccc5c(c4)CNCC5)ccc3c2n1CC(C)(C)O [Compound 60, 1-(4-amino-2-butyl-7-((1,2,3,4-tetrahydroisoquinolin-7-yl)methyl)-1H-imidazo[4,5-c]quinolin-1-yl)-2-methylpropan-2-ol] | < 1 µM | < 5 µM | < 0.64 µM | –
4 | CCCCc1nc2c(N)nc3cc(Cc4ccc5c(c4)C(N)CC5)ccc3c2n1CC(C)(C)O (stereo not drawn) [Compound 61, 1-(4-amino-7-((3-amino-2,3-dihydro-1H-inden-5-yl)methyl)-2-butyl-1H-imidazo[4,5-c]quinolin-1-yl)-2-methylpropan-2-ol] | < 1 µM | < 5 µM | < 0.64 µM | –
5 | CCCCc1nc2c(N)nc3cc(Cc4cccc(OCCN)c4)ccc3c2n1CC(C)(C)O [Compound 62, 1-(4-amino-7-(3-(2-aminoethoxy)benzyl)-2-butyl-1H-imidazo[4,5-c]quinolin-1-yl)-2-methylpropan-2-ol] | < 1 µM | < 5 µM | < 0.64 µM | –
6 | CCCCc1nc2c(N)nc3cc(Cc4cccc(N5CCNCC5)c4)ccc3c2n1CC(C)(C)O [Compound 63, 1-(4-amino-2-butyl-7-(3-(piperazin-1-yl)benzyl)-1H-imidazo[4,5-c]quinolin-1-yl)-2-methylpropan-2-ol] | < 1 µM | < 5 µM | < 0.64 µM | –
7 | CCCCc1nc2c(N)nc3cc(Cc4cccc(C(=O)NCCN)c4)ccc3c2n1CC(C)(C)O [Compound 64, 3-((4-amino-2-butyl-1-(2-hydroxy-2-methylpropyl)-1H-imidazo[4,5-c]quinolin-7-yl)methyl)-N-(2-aminoethyl)benzamide] | 1 to 10 µM | < 5 µM | < 0.64 µM | –
8 | CCCCc1nc2c(N)nc3cc(Cc4cccc(NC(=O)CN)c4)ccc3c2n1CC(C)(C)O [Compound 65, 2-amino-N-(3-((4-amino-2-butyl-1-(2-hydroxy-2-methylpropyl)-1H-imidazo[4,5-c]quinolin-7-yl)methyl)phenyl)acetamide] | 1 to 10 µM | < 5 µM | < 0.64 µM | –
9 | CCCCc1nc2c(N)nc3cc(Cc4cccc(CNC(=O)CN)c4)ccc3c2n1CC(C)(C)O [Compound 66, 2-amino-N-(3-((4-amino-2-butyl-1-(2-hydroxy-2-methylpropyl)-1H-imidazo[4,5-c]quinolin-7-yl)methyl)benzyl)acetamide] | 1 to 10 µM | < 5 µM | > 0.64 µM | –
10 | CCCCc1nc2c(N)nc3cc(Cc4cc(CN)ccc4F)ccc3c2n1CC(C)(C)O [Compound 67, 1-(4-amino-7-(5-(aminomethyl)-2-fluorobenzyl)-2-butyl-1H-imidazo[4,5-c]quinolin-1-yl)-2-methylpropan-2-ol] | < 1 µM | < 5 µM | < 0.64 µM | –
11 | CCCCc1nc2c(N)nc3cc(Cc4ccc(F)c(CN)c4)ccc3c2n1CC(C)(C)O [Compound 68, 1-(4-amino-7-(3-(aminomethyl)-4-fluorobenzyl)-2-butyl-1H-imidazo[4,5-c]quinolin-1-yl)-2-methylpropan-2-ol] | < 1 µM | < 5 µM | < 0.64 µM | –

Now from value to compound, other results behind:

Row | EC50 [1] | EC50 [2] | Compound | EC50 [3, 4] | EC50 ([3]; Homo sapiens, PBMC, 24 h)
12 | < 1 µM | < 5 µM | CC(C)(O)Cn1c(COCC(F)(F)F)nc2c(N)nc3cc(Cc4cccc(CN)c4)ccc3c21 [Compound 53, 1-(4-amino-7-(3-(aminomethyl)benzyl)-2-((2,2,2-trifluoroethoxy)methyl)-1H-imidazo[4,5-c]quinolin-1-yl)-2-methylpropan-2-ol] | < 0.64 µM | –
13 | < 1 µM | < 5 µM | CC(C)(O)Cn1c(CC2CC2)nc2c(N)nc3cc(Cc4cccc(CN)c4)ccc3c21 [Compound 54, 1-(4-amino-7-(3-(aminomethyl)benzyl)-2-(cyclopropylmethyl)-1H-imidazo[4,5-c]quinolin-1-yl)-2-methylpropan-2-ol] | > 0.64 µM | –
14 | < 1 µM | < 5 µM | CC(C)(O)Cn1c(COC2CC2)nc2c(N)nc3cc(Cc4cccc(CN)c4)ccc3c21 [Compound 55, 1-(4-amino-7-(3-(aminomethyl)benzyl)-2-(cyclopropoxymethyl)-1H-imidazo[4,5-c]quinolin-1-yl)-2-methylpropan-2-ol] | < 0.64 µM | –
15 | < 1 µM | < 5 µM | CCCCc1nc2c(N)nc3cc(C(C)c4cccc(CN)c4)ccc3c2n1CC(C)(C)O (stereo not drawn) [Compound 56, 1-(4-amino-7-(1-(3-(aminomethyl)phenyl)ethyl)-2-butyl-1H-imidazo[4,5-c]quinolin-1-yl)-2-methylpropan-2-ol] | < 0.64 µM | –
16 | < 1 µM | < 5 µM | CCCCc1nc2c(N)nc3cc(Cc4ccc5c(c4)CC(N)CC5)ccc3c2n1CC(C)(C)O (stereo not drawn) [Compound 58, 1-(4-amino-7-((7-amino-5,6,7,8-tetrahydronaphthalen-2-yl)methyl)-2-butyl-1H-imidazo[4,5-c]quinolin-1-yl)-2-methylpropan-2-ol] | < 0.64 µM | –
17 | < 1 µM | < 5 µM | CCCCc1nc2c(N)nc3cc(Cc4ccc5c(c4)CCNC5)ccc3c2n1CC(C)(C)O [Compound 59, 1-(4-amino-2-butyl-7-((1,2,3,4-tetrahydroisoquinolin-6-yl)methyl)-1H-imidazo[4,5-c]quinolin-1-yl)-2-methylpropan-2-ol] | < 0.64 µM | –
